From a compilation of properties of binary mixtures (doi:10.1016/j.jct.2017.12.009)

Assay: xn = mol fraction of the nth substance listed
Settings: 101 kPa

CO + CCCC[N+]1(C)CCCC1.O=S(=O)([O-])C(F)(F)F
x2 = 0
Settings	speed of sound [m/s]
278.15 K	1169
288.15 K	1135

CCCC[N+]1(C)CCCC1.O=S(=O)([O-])C(F)(F)F + CO
speed of sound [m/s]
Settings	278.15 K	288.15 K	298.15 K	308.15 K	318.15 K
x1 = 0.0501	1228	1198	1168	1138	1110
x1 = 0.1004	1274	–	–	1190	1163
x1 = 0.1503	1311	–	1257	1231	1205
x1 = 0.2002	–	1316	–	1264	1239
x1 = 0.3002	1389	1363	1338	1313	1289
x1 = 0.3996	1421	1396	1371	–	1324
x1 = 0.4998	1445	1420	1396	1372	1349
x1 = 0.6006	1463	1439	1415	–	1368
x1 = 0.7015	1478	1453	1429	1406	1383
x1 = 0.8013	1490	1465	–	1418	–
x1 = 0.8427	1495	1470	1446	1423	1400
x1 = 0.9008	1501	1476	1452	1429	1406
x1 = 0.9514	–	1480	1456	1433	1411
x1 = 1	1513	–	1461	1438	1415
